The values that follow come from US20090023683A1, “COMPLEXES COMPRISING ZOLEDRONIC ACID AND CYCLODEXTRINS” (priority 2007, published 2009).

Series [1] can be described thus: Water solubility at 25° C. of zoledronic acid-HPβCD complexes and zoledronic acid monohydrate. Format: physicochemical. The text has this: Solubility data of Examples 1-5 and Zoledronic Acid Monohydrate
For series [2] the following is noted: cited from earlier work.
The conditions of series [3]: cited from earlier work. The source holds these as a separate data set.

By solubility is commonly meant the concentration that dissolves in the medium under given conditions. A lower solubility goes with a poorly soluble substance. `O=P(O)(O)C(O)(Cn1ccnc1)P(=O)(O)O` [Zoledronic acid monohydrate, zoledronic acid monohydrate] displayed a solubility in series [1] of under 7000 µg/mL.
Take `O=P(O)(O)C(O)(Cn1ccnc1)P(=O)(O)O` [zoledronic acid]: the “water solubility (in words)” value in series [2] is on record as “sparingly water-soluble”.
As for hydroxypropyl-β-cyclodextrin [HPβCD], the solubility in water entry in series [2] (room temperature) was “greater than 500 mg/ml”. Also, the “adverse effects in human studies” value in series [3] was “no adverse effects are observed”.
